Test [1] addresses PIK3CA (human) (UniProt P42336). Nature of the test: Inhibition of Substrate Phosphorylation by PIK3CA. To be noted: hct 116,bxpc-3 pancreatic,mda-mb-468, concentration not given here.
Test [2] deals with MAPK14 (human) (UniProt Q16539). Nature of the test: Inhibition of MAPK14 Kinase Activity.
In test [3] the target is PIK3CA (human) (UniProt P42336). Nature of the test: Inhibition of PIK3CA Kinase Activity.
PIK3CA (human), sequence (P42336 whole entry, looked up): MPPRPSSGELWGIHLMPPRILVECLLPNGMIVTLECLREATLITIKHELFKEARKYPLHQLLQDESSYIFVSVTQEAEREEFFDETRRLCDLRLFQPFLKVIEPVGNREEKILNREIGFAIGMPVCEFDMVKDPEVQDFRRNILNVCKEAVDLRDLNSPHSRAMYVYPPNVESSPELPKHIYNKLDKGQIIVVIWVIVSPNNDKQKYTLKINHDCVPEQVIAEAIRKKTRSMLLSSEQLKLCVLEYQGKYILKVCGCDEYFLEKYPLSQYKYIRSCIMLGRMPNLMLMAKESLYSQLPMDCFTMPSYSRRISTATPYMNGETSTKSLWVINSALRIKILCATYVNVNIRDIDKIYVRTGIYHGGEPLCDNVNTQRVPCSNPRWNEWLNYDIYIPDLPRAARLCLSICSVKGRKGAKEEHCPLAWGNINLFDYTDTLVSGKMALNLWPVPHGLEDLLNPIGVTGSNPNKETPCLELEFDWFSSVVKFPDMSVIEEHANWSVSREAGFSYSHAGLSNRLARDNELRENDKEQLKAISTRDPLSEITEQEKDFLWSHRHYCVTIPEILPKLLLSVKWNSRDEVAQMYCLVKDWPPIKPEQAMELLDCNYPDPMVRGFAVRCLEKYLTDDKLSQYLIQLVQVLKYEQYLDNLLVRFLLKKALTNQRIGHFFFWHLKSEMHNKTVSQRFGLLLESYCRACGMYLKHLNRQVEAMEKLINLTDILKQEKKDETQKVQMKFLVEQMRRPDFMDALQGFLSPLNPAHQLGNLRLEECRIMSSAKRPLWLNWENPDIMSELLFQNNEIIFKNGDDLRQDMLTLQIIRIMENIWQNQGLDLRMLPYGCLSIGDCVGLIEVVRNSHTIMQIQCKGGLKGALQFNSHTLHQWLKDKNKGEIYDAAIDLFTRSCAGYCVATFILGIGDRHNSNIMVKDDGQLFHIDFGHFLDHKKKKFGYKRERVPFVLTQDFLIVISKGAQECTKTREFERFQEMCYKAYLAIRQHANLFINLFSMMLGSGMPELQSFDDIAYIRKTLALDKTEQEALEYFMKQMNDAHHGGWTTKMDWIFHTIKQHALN

MAPK14 (human), sequence (Q16539 whole entry, looked up): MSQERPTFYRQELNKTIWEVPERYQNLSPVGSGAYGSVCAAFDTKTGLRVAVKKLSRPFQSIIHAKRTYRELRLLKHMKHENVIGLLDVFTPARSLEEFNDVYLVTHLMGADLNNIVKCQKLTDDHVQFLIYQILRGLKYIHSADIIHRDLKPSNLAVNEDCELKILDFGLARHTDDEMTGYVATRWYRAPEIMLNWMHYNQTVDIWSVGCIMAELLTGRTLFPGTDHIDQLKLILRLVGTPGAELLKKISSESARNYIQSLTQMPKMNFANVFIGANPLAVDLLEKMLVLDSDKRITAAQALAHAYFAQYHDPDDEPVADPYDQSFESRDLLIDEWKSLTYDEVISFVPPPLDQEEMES

In general, inhibition refers to how much of the control response was suppressed. High values mean strong suppression, low ones little suppression. As usually defined, the IC50 is the concentration at which inhibition is half-maximal. Lower therefore signals higher potency. The molecule `CCNC(=O)Nc1ccc2ncc(-c3ccc(OC(=O)OCCOC)cc3)nc2n1` showed an inhibition in test [1] of 100%. Further, the IC50 in test [2] is more than 100 µM.
`COc1cc(-c2cnc3ccc(NC(=O)NCCCCP(=O)(O)O)nc3n2)ccc1O` displayed an IC50 in test [2] of more than 100 µM.
Same read-out and setting: the same measure for `CCNC(=O)Nc1ccc2ncc(-c3cccc(OC(=O)OCCOC)c3)nc2n1`: more than 100 µM; for `CCNC(=O)Nc1ccc2ncc(-c3ccc(OC(=O)OCC(C)C)cc3)nc2n1`: more than 100 µM.
In test [1], `CCNC(=O)Nc1ccc2ncc(-c3ccc(OC(=O)OCCOC)c(OC)c3)nc2n1` showed an inhibition of 90%. In test [2], the IC50 is more than 100 µM.
With `CCNC(=O)Nc1ccc2ncc(-c3ccc(OC(=O)/C=C/c4ccccc4)cc3)nc2n1`, the IC50 in test [3] was more than 31.6 µM; in test [2], more than 100 µM.
With `CCNC(=O)Nc1ccc2ncc(Nc3ccc(NC(C)=O)cc3)nc2n1`, the half-inhibitory concentration (IC50) in test [2] was more than 100 µM.
Molecule `CCNC(=O)Nc1ccc2ncc(-c3ccc(NC(=O)OC(C)(C)C)cc3)nc2n1` gave an IC50 in test [2] of more than 100 µM.
Still for that read-out and setting: then `CCNC(=O)Nc1ccc(-c2cnc3ccc(NC(=O)NCC)nc3n2)cn1`, with more than 100 µM; and `COCCOC(=O)Oc1ccc(-c2cnc3ccc(NC(=O)NCCCCO)nc3n2)cc1`, with more than 31.6 µM.
Same read-out and setting: the same measure for `CCOP(=O)(CCCCNC(=O)Nc1ccc2ncc(-c3ccc(O)c(OC)c3)nc2n1)OCC`: more than 100 µM.
The molecule `CCNC(=O)Nc1ccc(-c2cnc3ccc(NC(=O)NCC)nc3n2)cc1` gave an inhibition in test [1] of 70%. In test [2], the IC50 was more than 100 µM.
In test [1], `CCNC(=O)Nc1ccc2ncc(-c3ccc(OC(=O)OC)cc3)nc2n1` came in with an inhibition of 50%. The molecule also displayed a concentration for half-maximal inhibition (IC50) in test [2] of more than 100 µM.
In the case of `CCNC(=O)Nc1ccc2ncc(-c3ccc(OC(=O)Oc4ccccc4)cc3)nc2n1`, in test [2], the concentration for half-maximal inhibition (IC50) is more than 100 µM.
Still for that read-out and setting: then `CCNC(=O)Nc1ccc2ncc(-c3ccc(NC(=O)COCCOC)cc3)nc2n1`, with more than 100 µM.
The same measure, in the same setting: then `CCNC(=O)Nc1ccc2ncc(-c3ccc(OC(=O)N(C)C)cc3)nc2n1`, with more than 100 µM.
Take `CCNC(=O)Nc1ccc2ncc(Nc3ccc(C)c(NS(C)(=O)=O)c3)nc2n1`: the inhibition in test [1] is 90%.
Regarding `CCNC(=O)Nc1ccc2ncc(-c3ccc(NC(=O)OCCOC)cc3)nc2n1`, the IC50 in test [2] is more than 100 µM.

The record behind these values is the Kinase Knowledgebase extract (Sharma et al. 2016).
